{
  "source": "patent US12729182B2",
  "about": "“Crystalline forms of N,N-dimethyltryptamine and methods of using the same” (priority 2022, dated 2026)",
  "format_in_all_cases": "physicochemical",
  "key": {"[1]": {"assay": "Slurry competition (interconversion) studies between Forms I and IV in heptane", "conditions": "mixture of Form I and Form IV, pre-saturated heptane, 7 d", "experimental": "Interconversion slurries were conducted in heptane at RT, −20° C., and 40° C. as in Table 12. In these slurries, the heptane was pre-saturated with N,N-DMT using Form IV solids at the stated temperature, and a portion of the liquid phase was filtered into a mixture of Form I and Form IV solids."}, "[2]": {"assay": "Aqueous solubility by solvent addition, visual assessment", "conditions": "water, calculated from total solvent used"}, "[3]": {"assay": "Hygroscopicity by dynamic vapor sorption (DVS)"}, "[4]": {"assay": "Stable form screen slurries, form by XRPD", "conditions": "for Relative thermodynamic stability of the polymorph (conclusion from slurries): slurries at RT, 40° C., about 2 weeks", "experimental": "Slurrying: Suspensions were prepared by adding enough solids to a given solvent at the stated conditions so that undissolved solids were present. The mixture was then agitated (typically by stirring or oscillation) in a sealed vial at a given temperature for an extended period of time.\nSlurry experiments were conducted to determine the relative stability of Forms I, III, and IV. The screening conditions are tabulated at Tables 9-11.\nIn these experiments, saturated solutions containing excess undissolved solids were stirred for extended durations. […] Slurries were conducted RT, 40° C., 5° C., and −20° C. for approximately 2 weeks."}, "[5]": {"assay": "Thermogravimetric analysis (TGA), decomposition", "conditions": "25 to 350° C. at 10° C./min under nitrogen", "experimental": "TGA or TGA/DSC analyses were performed using a Mettler-Toledo TGA/DSC3+ analyzer. Temperature and enthalpy adjustments were performed using indium, tin, zinc, and phenyl salicylate, and then verified with indium. The balance was verified with calcium oxalate. The sample was placed in an aluminum pan. The pan was hermetically sealed, the lid pierced, and the pan was then inserted into the TG furnace. A weighed aluminum pan configured as the sample pan was placed on the reference platform. The furnace was heated under nitrogen. Samples were analyzed from 25° C. to 350° C. at 10° C./min. Thermogravimetric analyses typically experience a period of equilibration at the start of each analysis, indicated by parentheses on the thermograms in the Figures section (V). The starting temperature for relevant weight loss calculations is selected at a point beyond this region (typically above 35° C.) for accuracy."}, "[6]": {"assay": "Solid state heating experiments, form conversion"}, "[7]": {"assay": "Cycling DSC of amorphous N,N-DMT prepared in situ (glass transition)", "experimental": "A cycling DSC experiment was performed to investigate a potential glass transition temperature by preparing amorphous solids in situ, starting with Form IV.\nAt the start of the experiment, Form IV solids were heated past the melt (to 80° C.) and held for 10 minutes. The melted material was quickly cooled to −80° C., then reheated to 200° C. A glass transition (Tg) is observed as a step in the green curve at −18° ° C. Amorphous materials tend to spontaneously crystallize at temperatures above the Tg."}},
  "note": "Entries after “also recorded” stand apart in the source; their conditions may differ.",
  "data": [
    {"smiles": "CN(C)CCc1c[nH]c2ccccc12", "note": "[Form I and Form IV, N,N-dimethyltryptamine]", "values": [
      {"measurement": "XRPD Result after competition slurry", "setting": "[1]; 40° C.", "value": "Form IV"},
      {"measurement": "XRPD Result after competition slurry", "setting": "[1]; RT", "value": "Form IV"},
      {"measurement": "XRPD Result after competition slurry", "setting": "[1]; −20° C.", "value": "Form IV"}
    ]},
    {"smiles": "CN(C)CCc1c[nH]c2ccccc12", "note": "[Form I, N,N-dimethyltryptamine]", "values": [
      {"measurement": "solubility", "setting": "[2]; thermodynamic from solid", "value": "< 1000", "unit": "µg/mL"},
      {"measurement": "Hygroscopicity [DVS], water uptake", "setting": "[3]; at 60% RH", "value": 0.04, "unit": "wt % water at"},
      {"measurement": "Hygroscopicity [DVS], water uptake", "setting": "[3]; at 90% RH", "value": "60% RH and 0.18%"},
      {"measurement": "Form after DVS cycle and drying", "setting": "[3]; post-DVS solids dried at 60° C.", "value": "form change; also recorded: recrystallized upon cooling to ambient temperature to lower-melting Form III"},
      {"measurement": "XRPD Result after slurry", "setting": "[4]; start Form I, EtOAc/cyclohexane (5:95), attempted slurry, RT, 13 d", "value": "Form I"},
      {"measurement": "XRPD Result after slurry", "setting": "[4]; start Form I, IPA/water (10:90), 5° C., 13 d", "value": "Form I"},
      {"measurement": "XRPD Result after slurry", "setting": "[4]; start Form I, THF/water (5:95), attempted slurry, RT, 13 d", "value": "Form IV"},
      {"measurement": "XRPD Result after slurry", "setting": "[4]; start Form I, acetone/water (10:90), 5° C., 13 d", "value": "Form IV"},
      {"measurement": "XRPD Result after slurry", "setting": "[4]; start Form I, cyclohexane, RT, 13 d", "value": "Form I"},
      {"measurement": "XRPD Result after slurry", "setting": "[4]; start Form I, heptane, RT, 13 d", "value": "Form I"},
      {"measurement": "XRPD Result after slurry", "setting": "[4]; start Form I, heptane, −20° C., 17 d", "value": "Form I"}
    ]},
    {"smiles": "CN(C)CCc1c[nH]c2ccccc12", "note": "[Form III, N,N-dimethyltryptamine]", "values": [
      {"measurement": "Decomposition (steep drop in TGA thermogram) begins above", "setting": "[5]", "value": "> 240", "unit": "°C"},
      {"measurement": "Relative thermodynamic stability of the polymorph (conclusion from slurries)", "setting": "[4]; 5° C., −20° C.", "value": "metastable across all temperatures; also recorded: metastable at all conditions tested"},
      {"measurement": "XRPD Result after slurry", "setting": "[4]; start Form III, EtOAc/heptane (5:95), −20° C., 15 d", "value": "Form I"},
      {"measurement": "XRPD Result after slurry", "setting": "[4]; start Form III, IPAc/heptane (3:97), RT, 13 d", "value": "Form IV"},
      {"measurement": "XRPD Result after slurry", "setting": "[4]; start Form III, MeOH/water (20:80), 5° C., 15 d, sample oily before analysis", "value": "amorphous"},
      {"measurement": "XRPD Result after slurry", "setting": "[4]; start Form III, heptane, RT, 15 d", "value": "Form I"},
      {"measurement": "Form conversion on solid state heating", "setting": "[6]; held between 35° C. and 40° C.", "value": "concurrently melt and recrystallize to Form IV"}
    ]},
    {"smiles": "CN(C)CCc1c[nH]c2ccccc12", "note": "[Form IV, N,N-dimethyltryptamine]", "values": [
      {"measurement": "Aqueous solubility", "setting": "[2]", "value": "(<1) mg/mL"},
      {"measurement": "Decomposition (steep drop in TGA thermogram) begins above", "setting": "[5]", "value": "> 240", "unit": "°C"},
      {"measurement": "Relative thermodynamic stability of the polymorph (conclusion from slurries)", "setting": "[4]; 5° C., −20° C.", "value": "most thermodynamically stable polymorph; also recorded: remained unchanged upon slurrying in various solvent systems; also recorded: most thermodynamically stable form"},
      {"measurement": "XRPD Result after slurry", "setting": "[4]; start Form IV, EtOAc/heptane (5:95), −20° C., 13 d", "value": "Form IV"},
      {"measurement": "XRPD Result after slurry", "setting": "[4]; start Form IV, MeOH/water (20:80), 5° C., 13 d", "value": "Form IV"},
      {"measurement": "XRPD Result after slurry", "setting": "[4]; start Form IV, acetone/water (10:90), RT, 13 d", "value": "Form IV"},
      {"measurement": "XRPD Result after slurry", "setting": "[4]; start Form IV, heptane, RT, 13 d", "value": "Form IV"},
      {"measurement": "Form change on solid state heating", "setting": "[6]; heating at 50° C. for 10 minutes", "value": "no changes"}
    ]},
    {"smiles": "CN(C)CCc1c[nH]c2ccccc12", "note": "[amorphous N,N-DMT, N,N-dimethyltryptamine]", "values": [
      {"measurement": "Glass transition (Tg)", "setting": "[7]; Form IV melted at 80° C., 10 min, cooled to −80° C., reheated to 200° C.", "value": "−18", "unit": "°C"},
      {"measurement": "Physical stability of amorphous material", "setting": "[7]; heating/melting experiments, −20° C. to 40° C., above Tg", "value": "readily crystallize; also recorded: poor physical stability"}
    ]}
  ]
}
